Converted amounts (≈) assume the structure as drawn. Where two headings read alike, the source gives them in different places. Where no end group is shown, it is not given here.
Assays:
E. coli ATCC 25922 = assay: microbe, parasite or virus in culture; type: cell-based, Escherichia coli; details: LB, 2 × 10^5 CFU mL^−1, 18 to 24 h, 37°C, three independent experiments
Protocol: (§1) Bacterial cells were cultured at 37°C in the appropriate culture media with shaking (180 rpm). Luria-Bertani broth (LB) (244620; BD Difco) was used for E. coli ATCC 25922, ASEC strains, and B. subtilis KCTC 2217. Nutrient broth (NB) (234000; BD Difco) was used for P. aeruginosa ATCC 27853, S. Typhimurium KCTC 1926, and A. baumannii KCTC 2508. Tryptic soy broth (TSB) (211825; BD Difco) was used for S. aureus ATCC 25923. Finally, brain heart infusion (BHI) (237500; BD Difco) was used for L. monocytogenes KCTC 3710. The antimicrobial activity of each peptide was determined using microdilution assays. To this end, 2-fold serial dilution series of each peptide (from 1 to 64 μM) were added to duplicate media with 10 mM sodium phosphate buffer (pH 7.4). Fifty microliters of the peptide and antibiotic solution was added to each well of a 96-well plate (32096, surface nontreatment; SPL Life Sciences). Then, 50 μL of 2 × 10^5 CFU mL^−1 of bacteria was added to each well, and the samples were incubated for 18 to 24 h without shaking at 37°C.

MDR E. coli ASEC 10 = assay: microbe, parasite or virus in culture; type: cell-based, Escherichia coli; details: microdilution, LB, 18 to 24 h, 37°C, three independent experiments
Protocol: as §1

MDR E. coli ASEC 17 = assay: microbe, parasite or virus in culture; type: cell-based, Escherichia coli; details: microdilution, LB, 18 to 24 h, 37°C, three independent experiments
Protocol: as §1

MDR E. coli ASEC 2 = assay: microbe, parasite or virus in culture; type: cell-based, Escherichia coli; details: microdilution, LB, 18 to 24 h, 37°C, three independent experiments
Protocol: as §1

MDR E. coli ASEC 7 = assay: microbe, parasite or virus in culture; type: cell-based, Escherichia coli; details: microdilution, LB, 18 to 24 h, 37°C, three independent experiments
Protocol: as §1

[1] = test system: ASEC strains (drug-resistant E. coli, ASEC 1 to 19); assay: MIC, microdilution, summary over clinical isolates; type: cell-based; details: Escherichia coli; cefotaxime and ceftazidime: 'mostly showed no activity'
Protocol: as §1

P. aeruginosa ATCC 27853 = type: cell-based, Pseudomonas aeruginosa; details: microdilution, NB, 18 to 24 h, 37°C, three independent experiments
Protocol: as §1

mouse red blood cells = assay: Hemolytic activity; type: cell-based; details: 200 μM; 8% mouse red blood cells, 1 h, 37°C
Protocol: RAW 264.7 cells (mouse macrophage cells) were maintained in high-glucose Dulbecco’s modified Eagle medium (DMEM) (Welgene, Daegu, South Korea) supplemented with 10% fetal bovine serum (FBS) (Gibco) and 1% penicillin at 37°C in humidified 5% CO2. Cells (2 × 10^5 cells well^−1) were seeded into DMEM supplemented with 10% FBS medium in a 96-well plate. The MTT assay was performed after culturing the cells in 96-well plates at a density of 2 × 10^5 cells well^−1, followed by treatment with serially diluted PN5, magainin 2, and melittin. After 24 h, the medium was discarded, and 100 μL DMEM and 10% FBS medium containing 0.5 mg mL^−1 MTT were added to each well. After 4 h of incubation, the medium was discarded and dimethyl sulfoxide was added to each well to solubilize the formazan. The optical densities at 570 and 650 nm (OD570 and OD650, respectively) of the treated cells were compared to those of control cells. The hemolytic activity of the peptides was evaluated as the release of hemoglobin from an 8% mRBC suspension. A 100-μL aliquot of the 8% mRBC suspension was added to the wells of a 96-well plate, and 100 μL of peptide solution in phosphate-buffered saline (PBS) was added at a final peptide concentration of 200 μM. After incubation for 1 h at 37°C with shaking (50 rpm), the suspensions were centrifuged at 1,000 × g for 5 min. The absorbance of the supernatant was measured at 414 nm using a Versa Max microplate reader (Molecular Devices). As a control, no hemolysis and complete hemolysis were determined in PBS and 0.1% Triton X-100, respectively. The degree of hemolysis was calculated using the following equation as described in reference: %hemolysis=[(A414withpeptide-A414withPBS)/(A414with0.1%TritonX-100-A414 with PBS)] × 100

elastase = target: T1, elastase (Homo sapiens, UniProt P08246); assay: Resistance to proteolytic degradation, RP-HPLC; type: in vitro ADME; details: 50 μg PN5, 10 μg mL^−1 elastase, 0.1 M Tris-HCl pH 8.0, 37°C, 0 to 540 min; RP-HPLC C18, 214 nm
T1 construct: purchased Sigma-Aldrich 324681
Protocol: The stability of PN5 in the presence of the enzyme was measured by treatment with elastase. First, 10 μg mL^−1 elastase in 0.1 M Tris-HCl (pH 8.0) was incubated with 50 μg PN5 at 37°C with shaking (180 rpm), with aliquots collected at 0, 30, 60, 120, 360, 540, and 720 min. After incubation, each sample was observed by RP-HPLC with a Jupiter C18 column (4.6 by 250 mm, 300 Å, 5 μm). E. coli 25922 and S. aureus 25923 were cultured in LB and TSB media with shaking (180 rpm) at 37°C, washed twice with 10 mM sodium phosphate buffer (pH 7.4), suspended in 10 mL LB and TSB media at 2 × 10^5 CFU mL^−1, mixed with 0.2% agarose, and dried for 1 h. Paper disks (6 mm) were placed on the dried agarose, and 50 μg PN5 aliquots was dropped onto the disks. The disks were stored in a 37°C incubator for 24 h. PN5- and elastase (10 μg mL^−1)-treated PN5 was prepared to evaluate the susceptibility to E. coli 25922 and S. aureus 25923. PN5 (6.25, 12.5, 25, 50, and 100 μg) was diluted in 10 mM sodium phosphate buffer (pH 7.4) and 10 μg mL^−1 elastase. E. coli 25922 and S. aureus 25923 were prepared at 2 × 10^5 CFU mL^−1. Peptides with 10 μg mL^−1 elastase and bacteria were incubated for 9 h with shaking (180 rpm) and observed using a visible spectrophotometer (Pharmacia Biotech, Uppsala, Sweden) ([60]).

[2] = 200 μg/mL^−1; previous study; cited from earlier work
Source text: In this study, we confirmed that PN5 has antimicrobial activities against Gram-negative and Gram-positive bacteria, including MDR E. coli. The ASEC strains that were clinically isolated from patients, mentioned in Table S3 in the supplemental material, produced ESBL, which induces resistance to β-lactam antibiotics, and New Delhi metallo-β-lactamase (NDM), which hydrolyzes a class of carbapenems. […] The four PN peptides (PN5, PN7, PN8, and PN10) purified from pine ne ...

[3] = Escherichia coli, ATCC25922, microdilution, read-out: MIC
[4] = Escherichia coli, read-out: MIC

T1 sequence (P08246 30-267): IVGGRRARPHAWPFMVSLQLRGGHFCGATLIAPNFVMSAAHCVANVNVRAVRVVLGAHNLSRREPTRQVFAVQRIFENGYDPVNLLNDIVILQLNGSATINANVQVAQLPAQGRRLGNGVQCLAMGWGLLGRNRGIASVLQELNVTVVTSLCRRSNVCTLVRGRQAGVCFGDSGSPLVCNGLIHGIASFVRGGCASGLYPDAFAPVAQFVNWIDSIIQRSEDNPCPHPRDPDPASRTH

Compound	MIC (E. coli ATCC 25922; [3]) [µM]	MIC (MDR E. coli ASEC 10; [4]) [µM]	MIC (MDR E. coli ASEC 17; [4]) [µM]	MIC (MDR E. coli ASEC 2; [4]) [µM]	MIC (MDR E. coli ASEC 7; [4]) [µM]	MIC [1] [µM]	MIC (E. coli ATCC 25922; microdilution)	MIC (MDR E. coli ASEC 10)	MIC (MDR E. coli ASEC 17)	MIC (MDR E. coli ASEC 2)	MIC (MDR E. coli ASEC 7)	MIC (P. aeruginosa ATCC 27853) [µM]	hemolysis (mouse red blood cells)	peak of residual peptide after incubation with elastase (elastase)	cytotoxicity [2]
C[C@@H](O)[C@H]1C(=O)N2C(C(=O)O)=C(S[C@@H]3CN[C@H](C(=O)N(C)C)C3)[C@H](C)[C@H]12 [Meropenem]	< 1	< 1	< 1	> 32	< 1	–	–	–	–	–	–	–	–	–	–
CC(C)(O/N=C(\C(=O)N[C@@H]1C(=O)N2C(C(=O)[O-])=C(C[n+]3ccccc3)CS[C@H]12)c1csc(N)n1)C(=O)O [Ceftazidime]	< 1	32 (≈ 17.5 µg/mL)	> 32	> 32	16 (≈ 8.75 µg/mL)	> 32	–	–	–	–	–	–	–	–	–
FKFLARTGKFL-NH2 [PN5]	–	–	–	–	–	–	16 (21.22) μM	8 (10.61) μM	8 (10.61) μM	2 (2.65) μM	8 (10.61) μM	4	did not induce hemolysis	remained even after 9 h	less than 20%
CO/N=C(\C(=O)N[C@@H]1C(=O)N2C(C(=O)O)=C(COC(C)=O)CS[C@H]12)c1csc(N)n1 [Cefotaxime]	< 1	> 32	> 32	> 32	> 32	> 32	–	–	–	–	–	–	–	–	–

Reference: publication PMC9603901, “Therapeutic Potential of Antimicrobial Peptide PN5 against Multidrug-Resistant E. coli and Anti-Inflammatory Activity in a Septic Mouse Model” (Microbiology Spectrum, 2022)
